According to patent CN104650070A, “二氢嘧啶类化合物及其在药物中的应用” (Guangdong HEC Pharmaceutical Co Ltd, priority 2013, dated 2015):

Test system: HBV
Test: not given
Details: cited from Science, 299 (2003), 893-896; cited from earlier work

For Nc1ccn([C@@H]2CS[C@H](CO)O2)c(=O)n1 [拉米夫定], the IC50 is given as 300 nM.

Test system: HBV in HepG2.2.15 cells (HBV HepG2.2.15细胞株)
Test: In vitro anti-HBV activity in HBV HepG2.2.15 cell line (qPCR of HBV DNA in culture supernatant)
Type: cell-based
Details: Hepatitis B virus, 192 h, HBV DNA in culture supernatant by qPCR, collected on day 8, top concentration 16.4 μM, 3-fold dilution, 9 points, duplicate wells

CCOC(=O)C1=C(CN2CCOC[C@H]2C(=O)NC2CC2)NC(c2nccs2)=N[C@H]1c1ccc(F)cc1Br [实施例4, (R)-4-(2-溴-4-氟苯基)-6-(((S)-3-(环丙氨甲酰基)吗啉代)甲基)-2-(噻唑-2-基)-1,4-二氢嘧啶-5-甲酸乙酯] and CCOC(=O)C1=C(CN2CCOC[C@H]2C(=O)NC2CC2)NC(c2nccs2)=N[C@H]1c1ccc(F)cc1Cl [实施例5, (R)-4-(2-氯-4-氟苯基)-6-(((S)-3-(环丙氨甲酰基)吗啉代)甲基)-2-(噻唑-2-基)-1,4-二氢嘧啶-5-甲酸乙酯] are within 1.5-fold of each other in EC50: 700 nM for the first, 800 nM for the second.

CCOC(=O)C1=C(CN2CCOC[C@H]2C(=O)Nc2ccccc2)NC(c2nccs2)=N[C@H]1c1ccc(Cl)cc1Cl [实施例12, (R)-4-(2,4-二氯苯基)-6-(((S)-3-(苯基氨甲酰基)吗啉代)甲基)-2-(噻唑-2-基)-1,4-二氢嘧啶-5-甲酸乙酯] and CCOC(=O)C1=C(CN2CCOC[C@H]2C(=O)Nc2ccccc2)NC(c2nccs2)=N[C@H]1c1ccc(F)cc1Cl [实施例11, (R)-4-(2-氯-4-氟苯基)-6-(((S)-3-(苯基氨甲酰基)吗啉代)甲基)-2-(噻唑-2-基)-1,4-二氢嘧啶-5-甲酸乙酯] are within 1.5-fold of each other in EC50: 720 nM for the first, 920 nM for the second.

Going from CCOC(=O)C1=C(CN2CCOC[C@H]2C(=O)NS(C)(=O)=O)NC(c2nccs2)=NC1c1ccc(F)cc1Br (stereo partly drawn) [实施例1, 4-(2-溴-4-氟苯基)-6-(((S)-3-((甲磺酰基)氨甲酰基)吗啉代)甲基)-2-(噻唑-2-基)-1,4-二氢嘧啶-5-甲酸乙酯] to CCOC(=O)C1=C(CN2CCOC[C@H]2C(=O)NS(=O)(=O)C2CC2)NC(c2nccs2)=NC1c1ccc(F)cc1Br (stereo partly drawn) [实施例2, 4-(2-溴-4-氟苯基)-6-(((S)-3-((环丙磺酰基)氨甲酰基)吗啉)甲基)-2-(噻唑-2-基)-1,4-二氢嘧啶-5-甲酸乙酯], the EC50 rises from 1000 nM to 2300 nM (2.3-fold).

Going from CCOC(=O)C1=C(CN2CCOC[C@H]2C(=O)NCc2ccccc2)NC(c2nccs2)=N[C@H]1c1ccc(Cl)cc1Cl [实施例9, (R)-6-(((S)-3-(苄基氨甲酰)吗啉代)甲基)-4-(2,4-二氯苯基)-2-(噻唑-2-基)-1,4-二氢嘧啶-5-甲酸乙酯] to CCOC(=O)C1=C(CN2CCOC[C@H]2C(=O)NCc2ccccc2)NC(c2nccs2)=N[C@H]1c1ccc(F)cc1Cl [实施例8, (R)-6-(((S)-3-(苄基氨甲酰基)吗啉代)甲基)-4-(2-氯-4-氟苯基)-2-(噻唑-2-基)-1,4-二氢嘧啶-5-甲酸乙酯], the EC50 rises from 540 nM to 890 nM (1.6-fold). The first is the more potent here.

Going from CCOC(=O)C1=C(CN2CCOC[C@H]2C(=O)Nc2nccs2)NC(c2nccs2)=N[C@H]1c1ccc(F)cc1Br [实施例13, (R)-4-(2-溴-4-氟苯基)-2-(噻唑-2-基)-6-(((S)-3-(噻唑-2-基氨甲酰)吗啉代)甲基)-1,4-二氢嘧啶-5-甲酸乙酯] to CCOC(=O)C1=C(CN2CCOC[C@H]2C(=O)Nc2ccccc2)NC(c2nccs2)=N[C@H]1c1ccc(F)cc1Br [实施例10, (R)-4-(2-溴-4-氟苯基)-6-(((S)-3-(苯基氨甲酰基)吗啉代)甲基)-2-(噻唑-2-基)-1,4-二氢嘧啶-5-甲酸乙酯], the EC50 falls from 1400 nM to 800 nM (1.8-fold).

CCOC(=O)C1=C(CN2CCOC[C@H]2C(=O)NC2CC2)NC(c2nccs2)=N[C@H]1c1ccc(Cl)cc1Cl [实施例6, (R)-6-(((S)-3-(环丙氨甲酰基)吗啉代)甲基)-4-(2,4-二氯苯基)-2-(噻唑-2-基)-1,4-二氢嘧啶-5-甲酸乙酯] and CCOC(=O)C1=C(CN2CCOC[C@H]2C(=O)NCc2ccccc2)NC(c2nccs2)=N[C@H]1c1ccc(F)cc1Br [实施例7, (R)-6-(((S)-3-(苄基氨甲酰基)吗啉代)甲基)-4-(2-溴-4-氟苯基)-2-(噻唑-2-基)-1,4-二氢嘧啶-5-甲酸乙酯] are within 1.5-fold of each other in EC50: 650 nM for the first, 670 nM for the second.

COC(=O)C1=C(CN2CCOC(CCC(=O)NS(=O)(=O)c3ccccc3)C2)NC(c2nccs2)=NC1c1ccc(Cl)cc1Cl (centres unmarked) [实施例19, 4-(2,4-二氯苯基)-6-((2-(3-氧代-3-(苯磺酰胺)丙基)吗啉代)甲基)-2-(噻唑-2-基)-1,4-二氢嘧啶-5-甲酸甲酯] and COC(=O)C1=C(CN2CCOC(CCC(=O)NS(=O)(=O)c3ccccc3)C2)NC(c2nccs2)=NC1c1ccc(F)cc1Cl (centres unmarked) [实施例18, 4-(2-氯-4-氟苯基)-6-((2-(3-氧代-3-(苯磺酰胺)丙基)吗啉代)甲基)-2-(噻唑-2-基)-1,4-二氢嘧啶-5-甲酸甲酯] are within 1.5-fold of each other in EC50: 560 nM for the first, 740 nM for the second.

CCOC(=O)C1=C(CN2CCOC(CCC(=O)Nc3ccccc3)C2)NC(c2nccs2)=NC1c1ccc(F)cc1Br (centres unmarked) [实施例14, 4-(2-溴-4-氟苯基)-6-((-2-(3-氧代-3-(苯胺)丙基)吗啉代)甲基)-2-(噻唑-2-基)-1,4-二氢嘧啶-5-甲酸乙酯] and CCOC(=O)C1=C(CN2CCOC(CCC(=O)Nc3ccccc3)C2)NC(c2nccs2)=NC1c1ccc(F)cc1Cl (centres unmarked) [实施例15, 4-(2-氯-4-氟苯基)-6-((-2-(3-氧代-3-(苯胺)丙基)吗啉代)甲基)-2-(噻唑-2-基)-1,4-二氢嘧啶-5-甲酸乙酯] are within 1.5-fold of each other in EC50: 540 nM for the first, 670 nM for the second.

Compared with CCOC(=O)C1=C(CN2CCOC(CCC(=O)NCc3ccccc3)C2)NC(c2nccs2)=NC1c1ccc(F)cc1Br (centres unmarked) [实施例3, 6-((2-(3-(苄胺)-3-氧代丙基)吗啉)甲基)-4-(2-溴-4-氟苯基)-2-(噻唑-2-基)-1,4-二氢嘧啶-5-甲酸乙酯], COC(=O)C1=C(CN2CCOC(CCC(=O)NS(=O)(=O)c3ccccc3)C2)NC(c2nccs2)=NC1c1ccc(F)cc1Br (centres unmarked) [实施例17, 4-(2-溴-4-氟苯基)-6-((-2-(3-氧代-3-(苯磺酰胺)丙基)吗啉代)甲基)-2-(噻唑-2-基)-1,4-二氢嘧啶-5-甲酸甲酯] is 5-fold higher in EC50: 130 nM for the first, 650 nM for the second. The first is the more potent here.

With CCOC(=O)C1=C(CN2CCOC(CCC(=O)Nc3ccccc3)C2)NC(c2nccs2)=NC1c1ccc(Cl)cc1Cl (centres unmarked) [实施例16, 4-(2,4-二氯苯基)-6-((-2-(3-氧代-3-(苯胺)丙基)吗啉代)甲基)-2-(噻唑-2-基)-1,4-二氢嘧啶-5-甲酸乙酯] the EC50 was 490 nM.
